{"source": "patent US4608365A", "about": "“Treatment of neurologic functions” (priority 1984, dated 1986)", "key": {"[1]": {"system": "ALS patients", "test": "Transient autorefractory effect, intravenous TRH in ALS patients", "type": "in vivo, human", "method": "To analyze this phenomenon, four ALS patients were given six-minute intravenous pulses of […] of TRH at ten to twenty minute intervals. Each of the first one to five \"priming doses\" produced or, sustained dramatically-increased strength in responsive muscles. Subsequent identical pulses precipitated an equally dramatic interruption within 18-30 seconds causing rapid loss of all improvement, back to baseline strength or below, i.e., \"autorefractoriness.\" Some weakness of clinically normal limb muscles also sometimes occurred. Eleven autorefractory states of the four patients lasted 12-100 minutes (median 68 minutes) after initial administration of TRH, until spontaneous recovery re-achieved maximal strength benefit. During recovery, strength fluctuated. […] When the autorefractory state first developed, with loss of strength to baseline, increasing the infusion to 1.5 mg/minute rapidly overcame the \"block\" within one minute, associated with increased strength. Within another minute, complete autorefractoriness reappeared. Raising the rate to 2 mg/minute again reversed this blockage, with strength increased to maximum in thirty seconds, but autorefractoriness reappeared in 1.5 minutes. […] Strength fluctuated between complete blockage and partial reversal for the next 71 minutes until the autorefractoriness fully reversed itself at 81 minutes."}, "[2]": {"system": "amyotrophic lateral sclerosis patients", "test": "Effect of TRH on chronic joint pain in ALS patients (Example VIII)", "type": "in vivo, human", "settings": "after TRH treatment", "text": "In untreated amyotrophic lateral sclerosis patients, especially in more advanced stages of the disease, aching of joints is common, (e.g., in a \"frozen shoulder\" or painful hip). Often, the pain is so severe as to impair sleep. […] The reduction of pain was clearly appreciated when the patients were awake, and it also allowed much more restful nights without their being awakened frequently by pain. […] A logical extension of this observation is that pain of many causes, including other forms of arthritic pain, might be lessened by TRH, or an analog, active derivative or analog of an active derivative of TRH."}, "[3]": {"system": "infant with infantile spinal muscular atrophy", "set-up": "species or system human", "settings": "in vivo"}, "[4]": {"system": "non-ALS patients", "test": "Intravenous and subcutaneous TRH in non-ALS patients with lower or upper motor neuron abnormality (Example VII)", "type": "in vivo, human", "settings": "i.v. and s.c., seven non-ALS patients", "text": "The dosage, benefits and side-effects were essentially similar to those described in Examples II, V and VI."}, "[5]": {"system": "ALS patients", "type": "in vivo, human", "method": "As shown in Examples I-V, intravenous infusion of thyrotropin-releasing hormone improves weakness and spasticity from lower motor neuron and upper motor neuron involvement in patients with amyotrophic lateral sclerosis and proximal spinal muscular atrophy. In an additional study, forty-one ALS patients were treated with 461 days of subcutaneous TRH administered 75-150 mg once daily or 75 mg twice daily. The subcutaneous doses were sometimes administered by patients or spouses. Included were all forms of ALS, and all patients were videotaped pre- and post-treatment. […] Saline injections produced no responses. The previously-noted lesser benefit and side-effects in females was less evident.\nBenefit and side-effects of TRH administered subcutaneously were qualitatively and quantitatively similar to those of intravenous TRH described in Examples III and IV. […] Response times were somewhat different.\nThere were several control aspects of the TRH studies. […] The patients given subcutaneous TRH had treatments interspersed with saline placebo injections. […] The time course of response was not known before the study and, in fact, it was expected that the onset would be later and the duration of response longer than was actually found. Different patients responded to different doses of TRH, and the sex difference in response (woman apparently less responsive) was not expected. […] There were three observers, one unaware of the infusion status. In addition, clinical examinations of all patients of Examples III-VII were videotaped and later reviewed by several observers.\nIn each of the foregoing Examples, the TRH was administered in a normal saline solution containing 100 mg/ml of TRH. The pH of the solution was not adjusted. This particular carrier and strength was selected for its ready availability, the convenience in calculating dosages administered and its similarity to the placebo solution, and additional carriers may be employed as desired. Timed-release carriers would be particularly advantageous, and are within the scope of the invention."}, "[6]": {"system": "tissue-cultured fetal rat lower motor neurons", "test": "Trophic-like effect on tissue-cultured fetal rat lower motor neurons (cholineactyltransferase)", "type": "cell-based", "settings": "chronic", "text": "\"Transmitter-like,\" as used herein, includes not only direct excitatory (or facilitatory) and inhibitory actions on the lower motor neurons, but also any action on lower motor neurons or afferents thereto that results indirectly in such an effect. That excitatory TRH action, increasing patients' strength, is either directly excitatory or facilitatory and perhaps analogous to the lower motor neuron facilitation of glutamate excitation noted with TRH micropipetted into spinal cords of normal amphibia (Nicoll, J. Pharmac. Exp. Therap. 1978; 207: 817-24; Phillis et al., Can. J. Physiol. Pharmacol. 1979; 57: 887-99 and rodents, White Abstr. Soc. Neurosci 1983, 9: 714, and in other animal studies. An inhibitory transmitter-like action seems likely to underlie both the rapid-onset autorefractory phenomenon and the possibly related clinical reduction of spasticity, spasms and cramps. A tachyphalaxis or desensitization phenomenon, perhaps similar to the clinical autorefractory state, has been noted in animal lower motor neurons with larger amounts of TRH micropipetted into the spinal cord (Nicoll and Phillis, et al., supra)."}, "[7]": {"settings": "human, in vivo", "method": "In three ALS patients given 25 mg TRH intravenously during 6 minutes, concommitant TRH values were measured in the plasma and serum at 0, 6 and 12 minutes."}, "[8]": {"system": "ALS patients", "test": "Transient autorefractory effect, subcutaneous TRH in ALS patients", "type": "in vivo, human", "text": "Possible mechanisms for autorefractoriness, presumably involving the lower motor neuron soma/dendrites and/or neurons afferent thereto, include: […] In normal animals, repeated micropipetting of TRH near lower motor neurons has been shown by others to cause a similar prolonged unresponsiveness. The mechanism of autorefractoriness may be, in general, related to the excellent clinical anti-spasticity benefits of TRH, and non-excitatory TRH analogs may be employed within the spirit of the invention to enhance this type of clinical improvement."}, "[9]": {"settings": "eleven autorefractory states of four patients"}}, "data": [{"smiles": "NC(=O)[C@@H]1CCCN1C(=O)[C@H](Cc1cnc[nH]1)NC(=O)[C@@H]1CCC(=O)N1", "note": "[TRH, L-pyroglutamyl-L-histidyl-L-prolinamide]", "values": [{"measurement": "onset of waning-waxing of TRH-increased lower motor neuron strength", "setting": "[1]; continuous i.v. 1-8 mg/minute, all patients", "result": "as early as three to thirty minutes"}, {"measurement": "duration of autorefractory states", "setting": "[1]; [9]", "result": "12 to 100", "unit": "min"}, {"measurement": "median duration of autorefractory states", "setting": "[1]; [9]", "result": 68, "unit": "min"}, {"measurement": "partial reversal of autorefractoriness after TRH was stopped", "setting": "[1]; one ALS patient", "result": "partially reversed at ten minutes"}, {"measurement": "time to full reversal of autorefractoriness after TRH was stopped", "setting": "[1]; one ALS patient", "result": 81, "unit": "min"}, {"measurement": "strength", "setting": "[1]; one ALS patient, 1 mg/minute continuous i.v.", "result": "markedly increased their strength"}, {"measurement": "strength after raising the rate during autorefractoriness", "setting": "[1]; one ALS patient, 2.5 mg/minute for nine minutes", "result": "failed to increase strength"}, {"measurement": "time to interruption (loss of all improvement) after subsequent identical pulses", "setting": "[1]; six-minute i.v. pulses of 4.17 mg/minute at ten to twenty minute intervals, four ALS patients", "result": "18 to 30", "unit": "s"}, {"measurement": "arthritic (joint) pain", "setting": "[2]", "result": "striking improvement"}, {"measurement": "duration of pain improvement", "setting": "[2]", "result": "as long as one to four days"}, {"measurement": "safety and benefit on strength", "setting": "[3]", "result": "safety without side-effects and possible benefit on strength"}, {"measurement": "benefit", "setting": "[4]", "result": "markedly benefited"}, {"measurement": "improvement in neurologic deficits from hypofunction of lower and upper motor neurons", "setting": "[5]; ALS and other patients, therapeutic amounts (summary of all studies)", "result": "moderate to excellent improvement"}, {"measurement": "muscle strength in retreated female non-responder of Example II", "setting": "[5]; a few months later, evaluated in more detail", "result": "slight but definite improvement of muscle strength"}, {"measurement": "effect on mood, alertness, excitation, appetite or sleep", "setting": "[5]; human, in vivo", "result": "no noticeable effect"}, {"measurement": "new side effects", "setting": "[5]; human, in vivo", "result": "very transient taste noted within a few minutes; asthmatic phenomena lasting about five minutes during maximal shivering in two patients with a history of asthma"}, {"measurement": "strength and head tremor in one patient with hereditary ALS", "setting": "[5]; human, in vivo", "result": "improvement in strength and also improvement in a co-existing head tremor"}, {"measurement": "transient shivering, onset and end", "setting": "[5]; human, in vivo, sc", "result": "beginning at three to ten minutes and lasting until thirty to sixty minutes"}, {"measurement": "neuromuscular stamina", "setting": "[5]; s.c.", "result": "clearly increased"}, {"measurement": "painful muscle cramps, spasms, spontaneous clonus and stiffness", "setting": "[5]; s.c.", "result": "eliminated or lessened for several days in all patients having them"}, {"measurement": "painful spontaneous flexor withdrawal reflexes", "setting": "[5]; s.c.", "result": "remained eliminated for at least twelve days in some instances"}, {"measurement": "swallowing", "setting": "[5]; s.c.", "result": "increased, eliminating choking on food and saliva accumulation in the mouth"}, {"measurement": "time benefits in strength, cramps, spasticity and clonus often endured undiminished", "setting": "[5]; s.c.", "result": "twenty-four hours"}, {"measurement": "time to maximal increased strength", "setting": "[5]; s.c.", "result": "one-and-a-half to two minutes"}, {"measurement": "improvement", "setting": "[5]; s.c. 150 mg once daily or 75 mg twice daily (summary)", "result": "similarly striking improvement"}, {"measurement": "response", "setting": "[5]; s.c. 75-150 mg once daily or 75 mg twice daily, forty-one ALS patients, 461 days", "result": "beneficial responses"}, {"measurement": "stair climbing", "setting": "[5]; s.c., many patients", "result": "eleven flights of stairs (compared to two with difficulty before TRH)"}, {"measurement": "aching of shoulder and hip joints", "setting": "[5]; s.c., severe ALS", "result": "temporarily reduced or abolished for at least one to three days"}, {"measurement": "recovery of lost abilities", "setting": "[5]; s.c., some patients", "result": "regained abilities that had been lost for six to twelve months"}, {"measurement": "spasticity, clonus and muscle cramps", "setting": "[5]; s.c., when shivering diminished or one to three hours thereafter", "result": "improved from their before-treatment status or completely abolished or absent"}, {"measurement": "subcutaneous dose required per body weight", "setting": "[5]; single injection", "result": "≥ 0.71 mg/kg of body weight"}, {"measurement": "subcutaneous dose required", "setting": "[5]; single injection once, or similar amount twice-a-day", "result": "at least 50 mg"}, {"measurement": "enhancement of cholineactyltransferase", "setting": "[6]", "result": 17, "unit": "fold"}, {"measurement": "cerebrospinal fluid TRH level", "setting": "[7]", "result": "≤ 5368", "unit": "pg/mL"}, {"measurement": "partial autorefractory state, onset and duration", "setting": "[8]; 125-150 mg s.c., first day", "result": "began by four to ten minutes and lasted, with fluctuations, two to three hours"}, {"measurement": "time to increased strength", "setting": "[8]; 125-150 mg s.c., first day, twenty ALS patients", "result": "within one to two minutes"}, {"measurement": "effect of second dose at twenty-four hours", "setting": "[8]; another 125-150 mg s.c.", "result": "marked weakness within two minutes"}, {"measurement": "drug resistance on repeated treatment", "setting": "[8]; i.v. or s.c., as long as eight months", "result": "no diminution of beneficial response attributable to drug resistance"}]}]}
